In patent US20240269106A1, “SMALL MOLECULE MODULATOR TARGETING A RARE HISTONE MODIFICATION REGULATING ADIPOGENESIS AND PHARMACEUTICAL FORMULATION THEREOF” (COUNCIL OF SCIENTIFIC AND INDUSTRIAL RESEARCH AN INDIAN …, priority 2021, published 2024):

Columns and labels:
3T3L1 cells = assay: MTT assay for cytotoxicity testing; format: cell-based; details: 25 μM; 2, 4 and 6 days
Experimental: 12500 cells/mL were seeded in presence/absence of compound of Formula I in […] plate and at different intervals of time (2 days, 4 days, 6 days), 1/10th volume of 5 mg/ml MTT solution was added to it followed by incubation at 37° C. for 3 hours. The formed crystals were dissolved in DMSO and spectrometric estimation of colour intensity was done at 570 nm.
MTT assay was performed to check for any possible cellular toxicity effect of compound of Formula I, using 25 μM concentration of the compound on 3T3L1 cells upon incubation for varying lengths of time (2, 4 and 6 days). Comparison was done with cells that were left untreated or treated with DMSO as solvent control (FIG. 3).

[1] = system: histone acetylation and butyrylation in 3T3L1 cells; assay: Immunoblotting of histone modification status in 3T3L1; format: cell-based; details: 3T3L1 induced to undergo adipogenesis
Experimental: Histones were acid extracted from both undifferentiated and differentiated 3T3L1 for comparison of acetylation and butyrylation levels. For the acid extraction, 3T3L1 cells were washed with ice-cold PBS (supplemented with 5 mm NaBu) and then resuspended in Triton extraction buffer (PBS containing 0.5% Triton X-100 (v/v) and 2 mM PMSF). The cells were allowed to lyse on ice for 10 minutes, spun down, washed with PBS and the process was repeated another time. Then the proteins were acid extracted with 0.2 N HCl for two hours on ice. The debris was spun down and then histones were precipitated by incubating the supernatant with 33% Trichloroacetic acid at 4° C. for 30 minutes. The histones were then pelleted down and then given two washes with acetone. The pellet was allowed to air-dry for 10 minutes and then resuspended with 50 mm Tris-Cl, pH 7.4.
The histones were then run in 15% SDS-PAGE, transferred onto PVDF membrane, blocked with 5% skimmed milk solution to prevent non-specific antibody binding, and finally probed with antibodies against acetylation and butyrylation marks.
Acid extraction of histones was performed from 3T3L1 cells that had been induced to undergo adipogenesis in the absence of any inhibitor (No Inhibitor), in presence of DMSO (solvent control) and in presence of compound of Formula I. The extraction protocol was the same as that described in Example 7.
Histone acetylation levels in 3T3L1 cells that were treated with compound of Formula I were compared with that in DMSO treated and untreated conditions by immunoblotting with antibodies against acetylated histones H3K18, H3K9 and H4K12 (FIG. 7). Histones H3 and H4 were used as loading controls (panel i). Under similar conditions histone butyrylation levels were compared by immunoblotting using antibodies against butyrylated histone H3K23, H4K5 and pan-butyryl lysine (panel ii).

[2] = Single dose toxicity study for maximum tolerated dose; format: in vivo
Experimental: The single dose toxicity study on compound X was conducted in accordance with Good Laboratory Practice Principles as published by the OECD in 1998, in accordance with the Drugs and Cosmetics Rule (New Drugs and Clinical trials, 2019/DCGI). Compound X (formulated in vehicle i.e. 0.5% sodium salt of carboxymethyl cellulose) was administered to Sprague Dawley rats once by oral route on the day of scheduled treatment. The three treatment groups were 250 mg, 500 mg, and 1000 mg/kg body weight, while vehicle control was administered to control group. The rat equivalent doses were calculated from the dosage used in mice experiments following FDA guidelines for drug administration. The doses finally administered were 10, 20 and 40 times the corresponding mice equivalent dose. Food, but not water, was removed thus letting the animals fast over-night prior to dosing. […] Animals were subsequently observed once daily for any signs of toxicity, mortality, or any other observations including conditions of skin, hair coat, eyes, mucous membrane, movement, activity, tremors, convulsions, salivation, diarrhea, posture, piloerection and lethargy. Food intake, water intake and body weight of animals was recorded weekly. Terminal sacrifice of surviving animals was performed after 14 days using CO2 euthanasia technique following which animals were necropsied. Animals were fasted over night before necropsy. Gross observations were recorded.

## COc1ccc(C(=O)C2=C3OC(C)(C)[C@@H](CC=C(C)C)C[C@@]34C[C@@H](CC=C(C)C)C(C)(C)[C@@](CC=C(C)C)(C2=O)C4=O)cc1OC [Compound X]
3T3L1 cells
  toxic effect (MTT): No toxic effect
[1]
  H3K23 Bu mark: showed inhibition
  H4K5 Bu mark: showed inhibition
  histone acetylation (H3K18, H3K9, H4K12): not found to be affected
[2]; 250, 500, 1000 mg/kg single oral dose, necropsy
  gross morphological changes in organs: no gross morphological changes in any organ
[2]; Female, 250 mg/Kg bw
  Average food intake, Final: 16.65 gram/day/animal
  Average food intake, Initial: 20 gram/day/animal
  Average food intake, Middle: 16.32 gram/day/animal
  Average water intake, Final: 16.65 ml/day/animal
  Average water intake, Initial: 20 ml/day/animal
  Average water intake, Middle: 16.32 ml/day/animal
  Body weight, Final: 176.35 gram
  Body weight, Initial: 151.99 gram
  Body weight, Mid: 174.54 gram
[2]; Female, 500 mg/Kg bw
  Average food intake, Final: 17.09 gram/day/animal
  Average food intake, Initial: 18.22 gram/day/animal
  Average food intake, Middle: 18.13 gram/day/animal
  Average water intake, Final: 17.09 ml/day/animal
  Average water intake, Initial: 18.22 ml/day/animal
  Average water intake, Middle: 18.13 ml/day/animal
  Body weight, Final: 175.8 gram
  Body weight, Initial: 153.32 gram
  Body weight, Mid: 176.55 gram
[2]; Female, 1000 mg/Kg bw
  Average food intake, Final: 16.97 gram/day/animal
  Average food intake, Initial: 18.17 gram/day/animal
  Average food intake, Middle: 17.82 gram/day/animal
  Average water intake, Final: 16.97 ml/day/animal
  Average water intake, Initial: 18.17 ml/day/animal
  Average water intake, Middle: 17.82 ml/day/animal
  Body weight, Final: 179.52 gram
  Body weight, Initial: 153.81 gram
  Body weight, Mid: 178.58 gram
[2]; Male, 250 mg/Kg bw
  Average food intake, Final: 22.62 gram/day/animal
  Average food intake, Initial: 20.03 gram/day/animal
  Average food intake, Middle: 20.79 gram/day/animal
  Average water intake, Final: 22.62 ml/day/animal
  Average water intake, Initial: 20.03 ml/day/animal
  Average water intake, Middle: 20.79 ml/day/animal
  Body weight, Final: 244.21 gram
  Body weight, Initial: 171.94 gram
  Body weight, Mid: 216.62 gram
[2]; Male, 500 mg/Kg bw
  Average food intake, Final: 23.29 gram/day/animal
  Average food intake, Initial: 20.99 gram/day/animal
  Average food intake, Middle: 21.14 gram/day/animal
  Average water intake, Final: 23.29 ml/day/animal
  Average water intake, Initial: 20.99 ml/day/animal
  Average water intake, Middle: 21.14 ml/day/animal
  Body weight, Final: 243.14 gram
  Body weight, Initial: 176.3 gram
  Body weight, Mid: 229.75 gram
[2]; Male, 1000 mg/Kg bw
  Average food intake, Final: 19.95 gram/day/animal
  Average food intake, Initial: 20.76 gram/day/animal
  Average food intake, Middle: 20.74 gram/day/animal
  Average water intake, Final: 19.95 ml/day/animal
  Average water intake, Initial: 20.76 ml/day/animal
  Average water intake, Middle: 20.74 ml/day/animal
  Body weight, Final: 226.19 gram
  Body weight, Initial: 176.24 gram
  Body weight, Mid: 217.65 gram
[2]; both gender, all three doses vs vehicle control
  effect on food and water consumption: no significant treatment related effect
